# Source: ChEMBL document CHEMBL1201862, “PubChem BioAssay data set” (2004)
#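 1) Cells in 96-well plates. 2) Compound, 48 h, 5 concentrations. 3) Linear interpolation between surrounding doses. 4) Unreached endpoint = highest concentration. At the GI50, growth is halved.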 Activity calls are given as the source filed them. Rule as the data show it: active = GI50 up to about 1.1 µM and inactive = higher.
# Tests used:
# Experiment in all cases: DTP human tumour cell line panel, 48 h
# MDA-MB-231 = tested on: MDA-MB-231
# HOP-62 = tested on: HOP-62
# SN12C = tested on: SN12C
# OVCAR-4 = tested on: OVCAR-4
# OVCAR-5 = tested on: OVCAR-5
# HOP-92 = tested on: HOP-92
# NCI-H23 = tested on: NCI-H23
# SF-295 = tested on: SF-295
# MDA-N = tested on: MDA-N
# RPMI-8226 = tested on: RPMI-8226
# UACC-62 = tested on: UACC-62
# HCC 2998 = tested on: HCC 2998
# BT-549 = tested on: BT-549
# TK-10 = tested on: TK-10
# OVCAR-8 = tested on: OVCAR-8
# COLO 205 = tested on: COLO 205
# CCRF-CEM = tested on: CCRF-CEM
# IGROV-1 = tested on: IGROV-1
# HL-60 = tested on: HL-60
# NCI-H460 = tested on: NCI-H460
# SR = tested on: SR
# LOX IMVI = tested on: LOX IMVI
# NCI/ADR-RES = tested on: NCI/ADR-RES
# MCF7 = tested on: MCF7
# U-251 = tested on: U-251
# UO-31 = tested on: UO-31
# 786-0 = tested on: 786-0
# NCI-H226 = tested on: NCI-H226
# K562 = tested on: K562
# ACHN = tested on: ACHN
# MDA-MB-435 = tested on: MDA-MB-435
# EKVX = tested on: EKVX
# OVCAR-3 = tested on: OVCAR-3
# SK-MEL-5 = tested on: SK-MEL-5
# M14 = tested on: M14
# KM12 = tested on: KM12
# HT-29 = tested on: HT-29
# A498 = tested on: A498
# RXF 393 = tested on: RXF 393
# SF-539 = tested on: SF-539
# SNB-19 = tested on: SNB-19
# SF-268 = tested on: SF-268
# HCT-15 = tested on: HCT-15
# NCI-H522 = tested on: NCI-H522
# SW-620 = tested on: SW-620
# Hs-578T = tested on: Hs-578T
# T47D = tested on: T47D
# PC-3 = tested on: PC-3
# SK-MEL-2 = tested on: SK-MEL-2
# SK-MEL-28 = tested on: SK-MEL-28
# UACC-257 = tested on: UACC-257
# DU-145 = tested on: DU-145
# HCT-116 = tested on: HCT-116
# A549 = tested on: A549
# SNB-75 = tested on: SNB-75
# MOLT-4 = tested on: MOLT-4
# CAKI-1 = tested on: CAKI-1
# SK-OV-3 = tested on: SK-OV-3
# Malme-3M = tested on: Malme-3M
smiles,measurement,setting,value
Nc1ncnc2oc(-c3cccs3)nc12,GI50,MDA-MB-231,> 100 µM (inactive)
same,GI50,HOP-62,> 100 µM (inactive)
same,GI50,SN12C,> 100 µM (inactive)
same,GI50,OVCAR-4,> 100 µM (inactive)
same,GI50,OVCAR-5,> 100 µM (inactive)
same,GI50,HOP-92,> 100 µM (inactive)
same,GI50,NCI-H23,> 100 µM (inactive)
same,GI50,SF-295,> 100 µM (inactive)
same,GI50,MDA-N,> 100 µM (inactive)
same,GI50,RPMI-8226,> 100 µM (inactive)
same,GI50,UACC-62,66.1 µM (inactive)
same,GI50,HCC 2998,> 100 µM (inactive)
same,GI50,BT-549,> 100 µM (inactive)
same,GI50,TK-10,> 100 µM (inactive)
same,GI50,OVCAR-8,> 100 µM (inactive)
same,GI50,COLO 205,> 100 µM (inactive)
same,GI50,CCRF-CEM,> 100 µM (inactive)
same,GI50,IGROV-1,> 100 µM (inactive)
same,GI50,HL-60,> 100 µM (inactive)
same,GI50,NCI-H460,> 100 µM (inactive)
same,GI50,SR,> 100 µM (inactive)
same,GI50,LOX IMVI,> 100 µM (inactive)
same,GI50,NCI/ADR-RES,> 100 µM (inactive)
same,GI50,MCF7,> 100 µM (inactive)
same,GI50,U-251,> 100 µM (inactive)
same,GI50,UO-31,> 100 µM (inactive)
same,GI50,786-0,> 100 µM (inactive)
same,GI50,NCI-H226,> 100 µM (inactive)
same,GI50,K562,> 100 µM (inactive)
same,GI50,ACHN,> 100 µM (inactive)
same,GI50,MDA-MB-435,> 100 µM (inactive)
same,GI50,EKVX,37.5 µM (inactive)
same,GI50,OVCAR-3,> 100 µM (inactive)
same,GI50,SK-MEL-5,> 100 µM (inactive)
same,GI50,M14,> 100 µM (inactive)
same,GI50,KM12,> 100 µM (inactive)
same,GI50,HT-29,83.4 µM (inactive)
same,GI50,A498,> 100 µM (inactive)
same,GI50,RXF 393,> 100 µM (inactive)
same,GI50,SF-539,> 100 µM (inactive)
same,GI50,SNB-19,> 100 µM (inactive)
same,GI50,SF-268,> 100 µM (inactive)
same,GI50,HCT-15,> 100 µM
same,GI50,NCI-H522,> 100 µM (inactive)
same,GI50,SW-620,> 100 µM (inactive)
same,GI50,Hs-578T,> 100 µM (inactive)
same,GI50,T47D,> 100 µM (inactive)
same,GI50,PC-3,> 100 µM (inactive)
same,GI50,SK-MEL-2,> 100 µM (inactive)
same,GI50,SK-MEL-28,> 100 µM (inactive)
same,GI50,UACC-257,> 100 µM (inactive)
same,GI50,DU-145,> 100 µM (inactive)
same,GI50,HCT-116,> 100 µM (inactive)
same,GI50,A549,> 100 µM (inactive)
C=C1CC(C)(COc2cc(=O)oc3ccccc23)OC1=O (centres undefined),GI50,SNB-75,8.07 µM (inactive)
same,GI50,MDA-MB-231,7.38 µM (inactive)
same,GI50,HOP-62,20.2 µM (inactive)
same,GI50,SN12C,8.3 µM (inactive)
same,GI50,OVCAR-4,3.87 µM (inactive)
same,GI50,OVCAR-5,7.78 µM (inactive)
same,GI50,HOP-92,1.2 µM (inactive)
same,GI50,NCI-H23,3.87 µM (inactive)
same,GI50,MOLT-4,1.94 µM (inactive)
same,GI50,SF-295,12.7 µM (inactive)
same,GI50,MDA-N,4.13 µM (inactive)
same,GI50,RPMI-8226,0.637 µM (active)
same,GI50,UACC-62,2.48 µM (inactive)
same,GI50,HCC 2998,25.2 µM (inactive)
same,GI50,BT-549,1.73 µM (inactive)
same,GI50,CAKI-1,2.22 µM (inactive)
same,GI50,TK-10,1.77 µM (inactive)
same,GI50,OVCAR-8,5.21 µM (inactive)
same,GI50,COLO 205,2.03 µM (inactive)
same,GI50,CCRF-CEM,1.86 µM (inactive)
same,GI50,IGROV-1,3.03 µM (inactive)
same,GI50,HL-60,1.17 µM (inactive)
same,GI50,NCI-H460,11.1 µM (inactive)
same,GI50,SK-OV-3,10.6 µM (inactive)
same,GI50,SR,2.88 µM (inactive)
same,GI50,LOX IMVI,2.56 µM (inactive)
same,GI50,NCI/ADR-RES,3.35 µM (inactive)
same,GI50,MCF7,1.74 µM (inactive)
same,GI50,U-251,14.3 µM (inactive)
same,GI50,UO-31,12.1 µM (inactive)
same,GI50,786-0,2.84 µM (inactive)
same,GI50,NCI-H226,10.3 µM (inactive)
same,GI50,K562,2 µM (inactive)
same,GI50,ACHN,5.21 µM (inactive)
same,GI50,MDA-MB-435,5.53 µM (inactive)
same,GI50,EKVX,12.3 µM (inactive)
same,GI50,OVCAR-3,3.96 µM (inactive)
same,GI50,SK-MEL-5,5.33 µM (inactive)
same,GI50,M14,1.42 µM (inactive)
same,GI50,KM12,8.02 µM (inactive)
same,GI50,HT-29,3.82 µM (inactive)
same,GI50,A498,2.91 µM (inactive)
same,GI50,Malme-3M,2.04 µM (inactive)
same,GI50,SF-539,3.96 µM (inactive)
same,GI50,SNB-19,15.8 µM (inactive)
same,GI50,SF-268,14.9 µM (inactive)
same,GI50,HCT-15,3.43 µM
same,GI50,NCI-H522,1.8 µM (inactive)
same,GI50,SW-620,2.57 µM (inactive)
same,GI50,Hs-578T,7.74 µM (inactive)
same,GI50,T47D,2.48 µM (inactive)
same,GI50,PC-3,4.11 µM (inactive)
same,GI50,SK-MEL-2,2.51 µM (inactive)
same,GI50,SK-MEL-28,3.05 µM (inactive)
same,GI50,UACC-257,1.87 µM (inactive)
same,GI50,DU-145,6.97 µM (inactive)
same,GI50,HCT-116,2.71 µM (inactive)
same,GI50,A549,14 µM (inactive)
C=C[C@H]1CN2CCc3c([nH]c4cc(O)ccc34)[C@@H]2C[C@@H]1C[C@H]1c2[nH]c3ccccc3c2CCN1C,GI50,SNB-75,2.11 µM (inactive)
same,GI50,MDA-MB-231,6.05 µM (inactive)
same,GI50,HOP-62,4.45 µM (inactive)
same,GI50,SN12C,4.79 µM (inactive)
same,GI50,OVCAR-4,7.03 µM (inactive)
same,GI50,OVCAR-5,17 µM (inactive)
same,GI50,HOP-92,3.39 µM (inactive)
same,GI50,NCI-H23,16 µM (inactive)
same,GI50,MOLT-4,3.57 µM (inactive)
same,GI50,SF-295,4.53 µM (inactive)
same,GI50,MDA-N,1.78 µM (inactive)
same,GI50,UACC-62,4.19 µM (inactive)
same,GI50,HCC 2998,1.76 µM (inactive)
same,GI50,BT-549,13.8 µM (inactive)
same,GI50,CAKI-1,6.04 µM (inactive)
same,GI50,TK-10,8.57 µM (inactive)
same,GI50,OVCAR-8,6.11 µM (inactive)
same,GI50,COLO 205,1.77 µM (inactive)
same,GI50,CCRF-CEM,1.69 µM (inactive)
same,GI50,IGROV-1,1.85 µM (inactive)
same,GI50,HL-60,1.04 µM (active)
same,GI50,NCI-H460,2.07 µM (inactive)
same,GI50,SK-OV-3,13.8 µM (inactive)
same,GI50,SR,2.67 µM (inactive)
same,GI50,LOX IMVI,4.41 µM (inactive)
same,GI50,NCI/ADR-RES,9.06 µM (inactive)
same,GI50,MCF7,2.31 µM (inactive)
same,GI50,U-251,1.77 µM (inactive)
same,GI50,UO-31,2.09 µM (inactive)
same,GI50,786-0,1.84 µM (inactive)
same,GI50,NCI-H226,18.7 µM (inactive)
same,GI50,K562,2.78 µM (inactive)
same,GI50,ACHN,5.28 µM (inactive)
same,GI50,MDA-MB-435,2.01 µM (inactive)
same,GI50,EKVX,7.62 µM (inactive)
same,GI50,OVCAR-3,4.39 µM (inactive)
same,GI50,SK-MEL-5,1.73 µM (inactive)
same,GI50,M14,1.74 µM (inactive)
same,GI50,KM12,3.66 µM (inactive)
same,GI50,HT-29,2.48 µM (inactive)
same,GI50,A498,2.16 µM (inactive)
same,GI50,Malme-3M,13.8 µM (inactive)
same,GI50,SF-539,1.82 µM (inactive)
same,GI50,SNB-19,6.67 µM (inactive)
same,GI50,SF-268,6.04 µM (inactive)
same,GI50,HCT-15,2.54 µM
same,GI50,NCI-H522,2.99 µM (inactive)
same,GI50,SW-620,1.92 µM (inactive)
same,GI50,Hs-578T,3.53 µM (inactive)
same,GI50,T47D,15.6 µM (inactive)
same,GI50,PC-3,4.89 µM (inactive)
same,GI50,SK-MEL-2,3.21 µM (inactive)
same,GI50,SK-MEL-28,1.78 µM (inactive)
same,GI50,UACC-257,1.95 µM (inactive)
same,GI50,DU-145,15.6 µM (inactive)
same,GI50,HCT-116,2.42 µM (inactive)
same,GI50,A549,5.53 µM (inactive)
